Like-named read-outs stand apart in the source and are kept apart here.
Columns and labels:
MMP-1 = biological target: T1, MMP-1 (Homo sapiens, UniProt P03956); test: MMP-1 inhibitory action (Type I collagen Activity Measurement kit, FITC-labeled collagen type I); assay type: biochemical; settings: MMP-1 inhibitory action, FITC-labeled collagen type I, 37° C. for 3 hr; read-out: IC50 MMP1 (Experimental Example 2)
T1 sequence (P03956 100-469): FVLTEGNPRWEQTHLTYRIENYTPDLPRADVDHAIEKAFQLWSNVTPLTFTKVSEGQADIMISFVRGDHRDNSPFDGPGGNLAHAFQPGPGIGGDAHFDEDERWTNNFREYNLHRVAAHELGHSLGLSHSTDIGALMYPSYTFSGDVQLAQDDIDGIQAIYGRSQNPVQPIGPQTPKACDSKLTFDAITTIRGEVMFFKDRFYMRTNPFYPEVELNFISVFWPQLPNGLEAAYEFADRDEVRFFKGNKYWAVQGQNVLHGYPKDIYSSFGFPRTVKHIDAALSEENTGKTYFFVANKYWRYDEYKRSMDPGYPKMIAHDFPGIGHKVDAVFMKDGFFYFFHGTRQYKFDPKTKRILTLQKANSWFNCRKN
Protocol: For MMP-1 Assay, Type I collagen Activity Measurement kit (YAGAI YU-72013) modified to a 96-well plate format was used.
The principle of the kit is based on the property of collagen that becomes soluble in ethanol after being cleaved by MMP-1.
(§1) The enzyme and substrate were diluted with Tris-HCl buffer, and test compounds were diluted with dimethyl sulfoxide (DMSO).
The enzyme and test compounds were added into 96-well plate, and fluorescein isothiocianate (FITC)-labeled collagen type I was added as a substrate and the mixture was incubated at 37° C. for 3 hr.
The reaction was terminated by addition of Tris-HCl buffer containing ethanol. After centrifugation, the supernatant containing denatured substrate was transferred to another 96-well plate. The collagenase activity of MMP-1 was determined by measuring FITC fluorescence intensity (excitation wavelength 485 nm, emission wavelength 530 nm) of each well. The inhibitory activity of the compound in each well (%) was calculated based on the values of enzyme-free well and inhibitor-free well. The inhibitory activity of the compound was represented as IC50 (μM).

aggrecanase-1 = biological target: T2, aggrecanase-1 (Homo sapiens, UniProt O75173); test: Aggrecanase-1 inhibitory action (Particle Assay, GAG release from aggrecan-containing polyacrylamide particles); assay type: biochemical
T2 sequence (O75173 213-837): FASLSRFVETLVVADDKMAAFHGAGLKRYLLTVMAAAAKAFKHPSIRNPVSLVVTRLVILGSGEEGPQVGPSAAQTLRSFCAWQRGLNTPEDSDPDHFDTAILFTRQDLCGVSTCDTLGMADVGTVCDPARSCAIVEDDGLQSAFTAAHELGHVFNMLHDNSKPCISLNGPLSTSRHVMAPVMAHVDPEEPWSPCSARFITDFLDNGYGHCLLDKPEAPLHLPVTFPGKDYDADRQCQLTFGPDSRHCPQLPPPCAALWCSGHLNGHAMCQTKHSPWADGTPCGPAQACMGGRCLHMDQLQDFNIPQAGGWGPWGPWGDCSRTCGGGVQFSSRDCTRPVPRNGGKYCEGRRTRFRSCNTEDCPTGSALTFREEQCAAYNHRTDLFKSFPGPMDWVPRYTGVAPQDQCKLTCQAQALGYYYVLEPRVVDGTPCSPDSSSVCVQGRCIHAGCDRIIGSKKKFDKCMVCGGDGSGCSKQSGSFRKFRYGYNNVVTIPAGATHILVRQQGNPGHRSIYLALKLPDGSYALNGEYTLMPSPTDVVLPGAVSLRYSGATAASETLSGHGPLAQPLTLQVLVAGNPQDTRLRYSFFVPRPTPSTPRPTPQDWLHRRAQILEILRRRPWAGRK
Protocol: Particle Assay was used for determination of aggrecanase activity.
as §1
Test compounds and the enzyme were added into 96-well plate, and polyacrylamide particles containing aggrecan were added as a substrate and the mixture was incubated at 37° C. for 15 hr.
After incubation, the supernatant was transferred to another plate, and mixed with 1,9-dimethylmethylene blue. The absorbence at 595 nm was measured to quantify the amount of glycosaminoglycan (GAG) released in the reaction supernatant. Whale chondroitin sulfate was used as the standard of GAG. The inhibitory activity of the compound in each well (%) was calculated based on the values of enzyme-free well and inhibitor-free well. The inhibitory activity of the compound was represented as […] (μM).

[1] = aggrecanase-1 inhibitory action, read-out: IC50 AG1 (Experimental Example 1)
[2] = Experimental Example 1, read-out: IC50 AG1

SMILES	IC50 (MMP-1)	IC50 (aggrecanase-1; [1])	IC50 (aggrecanase-1; [2])
O=C(O)[C@@]1(NS(=O)(=O)c2ccc(-c3ccc(Cl)cc3)cc2)C[C@H]1c1ccccc1 [Example 1-7]	≥ 10000 nM	< 1000 nM	
O=C(O)C1(NS(=O)(=O)c2ccc(-c3ccc(Cl)cc3)cc2)CC1c1ccccc1Oc1ccccc1 (stereo not drawn) [Example 1-14]	≥ 10000 nM	< 1000 nM	
O=C(O)C1(NS(=O)(=O)c2ccc(-c3ccc(Br)cc3)cc2)CC1c1ccccc1 (stereo not drawn) [Example 1-31]	≥ 10000 nM	< 1000 nM	
O=C(O)C1(NS(=O)(=O)c2ccc(OCc3ccc(Cl)cc3Cl)cc2)CC1c1ccccc1 (stereo not drawn) [Example 1-65]	≥ 10000 nM		
O=C(O)C1(NS(=O)(=O)c2ccc3c(c2)Cc2cc(F)ccc2-3)CC1c1ccccc1 (stereo not drawn) [Example 1-80]	≥ 10000 nM	< 100 nM	
CN(C)Cc1cccc(C2CC2(NS(=O)(=O)c2ccc(-c3ccc(Cl)cc3)s2)C(=O)O)c1 (stereo not drawn) [Example 1-98]	≥ 10000 nM	< 1000 nM	
Cn1ccnc1CNc1cccc(C2CC2(NS(=O)(=O)c2ccc(-c3ccc(Cl)cc3)cc2)C(=O)O)c1 (stereo not drawn) [Example 1-101]	≥ 10000 nM	< 1000 nM	
CN1CCC(N(C)Cc2cccc(C3CC3(NS(=O)(=O)c3ccc(-c4ccc(Cl)cc4)s3)C(=O)O)c2)CC1 (stereo not drawn) [Example 1-104]	≥ 10000 nM	< 1000 nM	
O=C(O)[C@]1(NS(=O)(=O)c2ccc(-c3ccc(Cl)cc3Cl)s2)C[C@@H]1c1ccccc1 [Example 1-125]	≥ 10000 nM	< 100 nM	
O=C(COc1ccccc1C1CC1(NS(=O)(=O)c1ccc(-c2ccc(Cl)cc2)s1)C(=O)O)NCc1ccccc1 (stereo not drawn) [Example 1-145]	≥ 10000 nM	< 1000 nM	
O=C(COc1ccccc1C1CC1(NS(=O)(=O)c1ccc(-c2ccc(Cl)cc2)s1)C(=O)O)N1CCOCC1 (stereo not drawn) [Example 1-146]	≥ 10000 nM	< 100 nM	
CC(C)NC(=O)COc1ccccc1C1CC1(NS(=O)(=O)c1ccc(-c2ccc(Cl)cc2)s1)C(=O)O (stereo not drawn) [Example 1-147]	≥ 10000 nM	< 1000 nM	
Cc1cnc(-c2ccc(S(=O)(=O)N[C@@]3(C(=O)O)C[C@@H]3c3ccccc3)s2)s1 [Example 2-26]	≥ 10000 nM	< 1000 nM	
O=C(O)C1(NS(=O)(=O)c2ccc(-c3ccc(Cl)cc3)s2)CC1c1cccnc1 (stereo not drawn) [Example 2-70]	≥ 10000 nM	< 1000 nM	
O=C(O)[C@]1(NS(=O)(=O)c2ccc(-c3csc4ccccc34)s2)C[C@@H]1c1ccccc1 [Example 2-118]	≥ 1000 nM	≥ 1000 nM	
O=C(O)C1(NS(=O)(=O)N2CCc3nc(-c4ccccc4)ncc3C2)CC1c1ccccc1 (stereo not drawn) [Example 2-127]	≥ 10000 nM	≥ 10000 nM	
O=C1O[C@H]([C@H]2C[C@@]2(NS(=O)(=O)c2ccc(-c3ccc(Cl)cc3)s2)C(=O)O)CN1Cc1ccccc1 [Example 2-138]		≥ 10000 nM	
O=C(O)C1(NS(=O)(=O)c2ccc(-c3ccc(Cl)cc3)s2)CC1c1ccccc1Br (stereo not drawn) [Example 2-167]	≥ 10000 nM	< 1000 nM	
O=C1Nc2ccccc2C2CC12NS(=O)(=O)c1ccc(-c2ccc(Cl)cc2)s1 (stereo not drawn) [Example 2-218]	≥ 10000 nM	≥ 1000 nM	
C[C@]1(c2ccccc2)C[C@@]1(NS(=O)(=O)c1ccc(-c2cccc(OCCO)c2)s1)C(=O)O [Example 2-575]			≥ 1000 nM
C[C@]1(c2ccccc2)C[C@@]1(NS(=O)(=O)c1ccc(-c2cccc(OCCCO)c2)s1)C(=O)O [Example 2-576]			≥ 1000 nM
COc1ccc(-c2ccc(S(=O)(=O)N[C@@]3(C(=O)O)C[C@]3(C)c3ccccc3)s2)cc1CO [Example 2-592]			≥ 1000 nM
COc1cccc([C@@]2(C)C[C@@]2(NS(=O)(=O)c2ccc(-c3cc(C(F)(F)F)on3)s2)C(=O)O)c1 [Example 2-624]			< 100 nM
CC1[C@](C)(c2ccccc2)[C@]1(NS(=O)(=O)c1ccc(-c2cc(C(C)(F)F)on2)s1)C(=O)O (stereo partly drawn) [Example 2-625]			< 100 nM

Further lines, results first:

IC50 (MMP-1)	IC50 (aggrecanase-1; [1])	IC50 (aggrecanase-1; [2])	SMILES
≥ 1000 nM	< 1000 nM		O=C(O)[C@]1(NS(=O)(=O)c2ccc(-c3ccc(Cl)cc3)cc2)C[C@@H]1c1ccccc1 [Example 1, (1S,2R)-1-(4′-Chlorobiphenyl-4-sulfonylamino)-2-phenylcyclopropanecarboxylic acid]
≥ 1000 nM	< 100 nM		COc1ccccc1C1CC1(NS(=O)(=O)c1ccc(-c2ccc(Cl)cc2)s1)C(=O)O (stereo not drawn) [Example 1-4]
≥ 1000 nM	< 1000 nM		COc1ccccc1C1CC1(NS(=O)(=O)c1ccc(-c2ccc(Cl)cc2)cc1)C(=O)O (stereo not drawn) [Example 1-13]
≥ 1000 nM	< 1000 nM		CN(C)c1cccc(C2CC2(NS(=O)(=O)c2ccc(-c3ccc(Cl)cc3)cc2)C(=O)O)c1 (stereo not drawn) [Example 1-21]
≥ 1000 nM	< 1000 nM		CC(C)(C)OC(=O)N1CCC(Nc2cccc(C3CC3(NS(=O)(=O)c3ccc(-c4ccc(Cl)cc4)cc3)C(=O)O)c2)CC1 (stereo not drawn) [Example 1-42]
≥ 1000 nM	< 1000 nM		O=C(O)C1(NS(=O)(=O)c2ccc(-c3ccc(Cl)cc3)cc2)CC1c1cccc(NCc2ccccc2)c1 (stereo not drawn) [Example 1-43]
≥ 1000 nM	< 1000 nM		O=C(O)C1(NS(=O)(=O)c2ccc(-c3ccc(Cl)cc3)cc2)CC1c1cccc(O)c1 (stereo not drawn) [Example 1-44]
≥ 1000 nM	< 1000 nM		O=C(O)[C@]1(NS(=O)(=O)c2cnc(-c3ccc(Cl)cc3)s2)C[C@@H]1c1ccccc1 [Example 1-100]
≥ 1000 nM	< 1000 nM		O=C(CO)Nc1cccc(C2CC2(NS(=O)(=O)c2ccc(-c3ccc(Cl)cc3)cc2)C(=O)O)c1 (stereo not drawn) [Example 1-105]
≥ 1000 nM	< 1000 nM		O=C(O)[C@]1(NS(=O)(=O)c2ccc(-c3cccc(Cl)c3)s2)C[C@@H]1c1ccccc1 [Example 1-110]
≥ 1000 nM	< 1000 nM		O=C(O)C1(NS(=O)(=O)c2ccc(-c3ccc(Cl)cc3)cc2)CC1c1cccc(NCc2ncc[nH]2)c1 (stereo not drawn) [Example 1-112]
≥ 1000 nM	< 1000 nM		CN(C)C(=O)COc1cccc(C2CC2(NS(=O)(=O)c2ccc(-c3ccc(Cl)cc3)cc2)C(=O)O)c1 (stereo not drawn) [Example 1-114]
≥ 1000 nM	< 1000 nM		COc1cccc(C2CC2(NS(=O)(=O)c2ccc(-c3ccc(Cl)cc3)s2)C(=O)O)c1 (stereo not drawn) [Example 1-115]
≥ 1000 nM	< 1000 nM		O=C(O)C1(NS(=O)(=O)c2ccc(-c3ccc(Cl)cc3)s2)CC1c1cccc(O)c1 (stereo not drawn) [Example 1-116]
≥ 1000 nM	< 100 nM		NC(=O)COc1cccc(C2CC2(NS(=O)(=O)c2ccc(-c3ccc(Cl)cc3)cc2)C(=O)O)c1 (stereo not drawn) [Example 1-117]
≥ 1000 nM	< 100 nM		CNC(=O)COc1cccc(C2CC2(NS(=O)(=O)c2ccc(-c3ccc(Cl)cc3)cc2)C(=O)O)c1 (stereo not drawn) [Example 1-118]
≥ 1000 nM	< 1000 nM		NC(=O)Nc1cccc(C2CC2(NS(=O)(=O)c2ccc(-c3ccc(Cl)cc3)s2)C(=O)O)c1 (stereo not drawn) [Example 1-135]
≥ 1000 nM	< 1000 nM		NC(=O)c1cccc(C2CC2(NS(=O)(=O)c2ccc(-c3ccc(Cl)cc3)s2)C(=O)O)c1 (stereo not drawn) [Example 1-137]
< 1000 nM	< 1000 nM		O=C(O)[C@]1(NS(=O)(=O)c2ccc(-c3ccc(C(F)F)s3)s2)C[C@@H]1c1ccccc1 [Example 2-102]
< 1000 nM	≥ 1000 nM		O=C(O)[C@]1(NS(=O)(=O)c2ccc(-c3cc4ccccc4o3)s2)C[C@@H]1c1ccccc1 [Example 2-122]
